Among the data in US9346798B2, “Dihydrobenzoxazine and tetrahydroquinoxaline sodium channel inhibitors” (AMGEN INC., priority 2012, dated 2016) are inhibition and IC50 values, retold here.

pIC50: −log10 of the molar value.

Sequence of Nav 1.7 (Q15858 whole entry): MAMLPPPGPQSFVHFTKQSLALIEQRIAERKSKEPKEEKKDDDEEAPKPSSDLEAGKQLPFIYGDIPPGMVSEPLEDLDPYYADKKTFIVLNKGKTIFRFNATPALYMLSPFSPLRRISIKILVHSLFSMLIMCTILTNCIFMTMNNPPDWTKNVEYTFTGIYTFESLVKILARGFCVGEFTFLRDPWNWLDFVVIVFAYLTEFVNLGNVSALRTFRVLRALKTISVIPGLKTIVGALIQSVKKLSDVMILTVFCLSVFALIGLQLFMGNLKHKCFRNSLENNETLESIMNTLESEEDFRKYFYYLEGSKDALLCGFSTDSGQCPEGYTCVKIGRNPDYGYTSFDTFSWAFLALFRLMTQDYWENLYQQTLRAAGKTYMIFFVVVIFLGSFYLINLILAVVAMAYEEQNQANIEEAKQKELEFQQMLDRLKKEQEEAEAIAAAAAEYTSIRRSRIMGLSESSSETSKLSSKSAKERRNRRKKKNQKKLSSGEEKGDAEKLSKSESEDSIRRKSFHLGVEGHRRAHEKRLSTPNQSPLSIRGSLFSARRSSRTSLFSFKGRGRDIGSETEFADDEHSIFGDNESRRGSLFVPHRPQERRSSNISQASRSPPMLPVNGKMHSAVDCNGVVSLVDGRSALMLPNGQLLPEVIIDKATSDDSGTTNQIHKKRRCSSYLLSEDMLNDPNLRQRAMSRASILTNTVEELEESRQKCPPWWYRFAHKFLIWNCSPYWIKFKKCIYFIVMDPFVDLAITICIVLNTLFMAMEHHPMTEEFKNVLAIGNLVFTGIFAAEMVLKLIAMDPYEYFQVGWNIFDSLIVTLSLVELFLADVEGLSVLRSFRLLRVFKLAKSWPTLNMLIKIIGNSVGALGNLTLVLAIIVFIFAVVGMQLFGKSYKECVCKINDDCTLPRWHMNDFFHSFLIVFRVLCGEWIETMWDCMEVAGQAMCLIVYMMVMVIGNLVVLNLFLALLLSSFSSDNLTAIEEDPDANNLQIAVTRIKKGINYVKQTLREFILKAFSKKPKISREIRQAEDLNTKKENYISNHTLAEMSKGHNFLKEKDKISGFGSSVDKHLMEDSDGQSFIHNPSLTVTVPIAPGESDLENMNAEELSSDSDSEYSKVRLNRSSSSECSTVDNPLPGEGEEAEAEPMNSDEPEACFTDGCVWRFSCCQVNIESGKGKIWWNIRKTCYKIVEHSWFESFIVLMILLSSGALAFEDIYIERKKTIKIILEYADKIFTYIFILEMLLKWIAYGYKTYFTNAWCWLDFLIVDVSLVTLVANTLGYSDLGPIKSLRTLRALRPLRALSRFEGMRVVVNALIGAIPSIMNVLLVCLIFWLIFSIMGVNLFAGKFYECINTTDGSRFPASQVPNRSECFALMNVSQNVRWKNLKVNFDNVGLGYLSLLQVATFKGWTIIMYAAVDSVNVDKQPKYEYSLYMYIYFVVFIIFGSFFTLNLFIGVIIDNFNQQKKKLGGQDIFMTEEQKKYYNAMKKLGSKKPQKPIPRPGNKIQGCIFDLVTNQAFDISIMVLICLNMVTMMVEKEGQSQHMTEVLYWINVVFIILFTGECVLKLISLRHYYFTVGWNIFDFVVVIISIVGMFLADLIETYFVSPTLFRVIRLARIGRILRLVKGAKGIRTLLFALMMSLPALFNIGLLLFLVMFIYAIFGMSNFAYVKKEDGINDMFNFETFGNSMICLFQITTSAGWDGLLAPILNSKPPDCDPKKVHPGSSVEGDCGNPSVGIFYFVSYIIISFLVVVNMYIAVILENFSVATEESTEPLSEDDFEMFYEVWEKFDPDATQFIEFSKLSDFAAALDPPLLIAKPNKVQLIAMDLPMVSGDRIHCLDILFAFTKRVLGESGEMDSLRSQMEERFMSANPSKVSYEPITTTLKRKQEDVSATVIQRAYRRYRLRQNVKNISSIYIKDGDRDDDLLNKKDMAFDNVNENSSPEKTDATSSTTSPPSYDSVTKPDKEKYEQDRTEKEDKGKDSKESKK

One assay addresses Nav 1.7 (Homo sapiens (Human), UniProt Q15858). As to the kind of experiment: Nav 1.7 in vitro PX assay, PatchXpress whole cell voltage clamp. The following applies: HEK293; values marked *; 4.9 μM; HEK 293 cells stably transfected with human Nav1.7; read-out: Nav 1.7 PX percent inhibition at 4.9 μM. Type of assay: cell-based. Here is the method:
Nav 1.7 In Vitro PX Assay
HEK 293 cells stably transfected with human Nav1.7 were recorded in whole cell voltage clamp mode with the PatchXpress automated electrophysiology system (Molecular Devices, LLC, Sunnyvale, Calif.). Compound effects were measured on a partially inactivated state of the sodium channel. Cells were clamped to a holding potential yielding 20 to 50% inactivation. To elicit sodium current, channels were activated by pulsing to −10 mV for 20 msec. This voltage protocol was repeated at a rate of 0.1 Hz throughout the experiment. A single concentration of test compound was applied to cells for a duration of 3 minutes. Peak sodium current was measured at the end of the compound addition period to determine percent inhibition. Three to five cells were tested per concentration, and IC50 curves were fitted to percent inhibition as a function of concentration.
Usually inhibition stands for the drop in the measured response relative to a control, in per cent. `CC(C)(O)COc1ccccc1N1CCOc2cc(S(=O)(=O)Nc3nccs3)ccc21` [Example 253, 4-(2-(2-hydroxy-2-methylpropoxy)phenyl)-N-(thiazol-2-yl)-3,4-dihydro-2H-benzo[b][1,4]oxazine-7-sulfonamide]: the inhibition at 4.9 µM amounted to 27%.

The same assay, now with this note: HEK 293 cells stably transfected with human Nav1.7; partially inactivated state (20 to 50% inactivation).
The pIC50 is −log10 of the IC50, conventionally taken in molar units. Low values mean a high IC50, high ones a low IC50. As to `COc1ccccc1N1C(=O)COc2cc(S(=O)(=O)Nc3nccs3)ccc21` [Example 235, 4-(2-Methoxyphenyl)-3-Oxo-N-(Thiazol-2-Yl)-3,4-Dihydro-2H-Benzo[B][1,4]Oxazine-7-Sulfonamide], the pIC50 is 6.05.

`COc1cc(F)ccc1N1C(=O)COc2cc(S(=O)(=O)Nc3nccs3)ccc21` [Example 245, 4-(4-Fluoro-2-Methoxyphenyl)-3-Oxo-N-(Thiazol-2-Yl)-3,4-Dihydro-2H-Benzo[B][1,4]Oxazine-7-Sulfonamide] showed a pIC50 of 6.21.

Regarding `N#Cc1cc(Cl)ccc1N1CCOc2cc(S(=O)(=O)Nc3ccncn3)ccc21` [Example 243, 4-(4-Chloro-2-Cyanophenyl)-N-(Pyrimidin-4-Yl)-3,4-Dihydro-2H-Benzo[B][1,4]Oxazine-7-Sulfonamide], the pIC50 is 5.73.

Turning to `COc1cc(C(F)(F)F)ccc1N1C(=O)[C@H](C)Oc2cc(S(=O)(=O)Nc3nccs3)ccc21` [Example 264, (S)-4-(2-methoxy-4-(trifluoromethyl)phenyl)-2-methyl-3-oxo-N-(thiazol-2-yl)-3,4-dihydro-2H-benzo[b][1,4]oxazine-7-sulfonamide], the pIC50 was 6.22.

Turning to `O=S(=O)(Nc1nccs1)c1ccc2c(c1)OCCN2c1ccccc1Oc1ccncc1` [Example 260, 4-(2-(pyridin-4-yloxy)phenyl)-N-(thiazol-2-yl)-3,4-dihydro-2H-benzo[b][1,4]oxazine-7-sulfonamide], the pIC50 is 5.65.

Molecule `CC(C)(C#N)Oc1ccccc1N1CCOc2cc(S(=O)(=O)Nc3nccs3)ccc21` [Example 261, 4-(2-((2-cyanopropan-2-yl)oxy)phenyl)-N-(thiazol-2-yl)-3,4-dihydro-2H-benzo[b][1,4]oxazine-7-sulfonamide] had a pIC50 of 5.44.

In turn, `Cc1cc(C(F)(F)F)ccc1N1C(=O)COc2cc(S(=O)(=O)Nc3nccs3)ccc21` [Example 247, 4-(2-Methyl-4-(Trifluoromethyl)Phenyl)-3-Oxo-N-(Thiazol-2-Yl)-3,4-Dihydro-2H-Benzo[B][1,4]Oxazine-7-Sulfonamide] gave a pIC50 of 6.39.

For `O=C1COc2cc(S(=O)(=O)Nc3nccs3)ccc2N1c1ccc(C(F)(F)F)cc1CO` [Example 262, 4-(2-(hydroxymethyl)-4-(trifluoromethyl)phenyl)-3-oxo-N-(thiazol-2-yl)-3,4-dihydro-2H-benzo[b][1,4]oxazine-7-sulfonamide], the pIC50 is 5.47.

`COc1cc(C(F)(F)F)ccc1N1CCOc2cc(S(=O)(=O)Nc3nccs3)c(C#N)cc21` [Example 213, 6-Cyano-4-(2-Methoxy-4-(Trifluoromethyl)Phenyl)-N-(Thiazol-2-Yl)-3,4-Dihydro-2H-Benzo[B][1,4]Oxazine-7-Sulfonamide] had a pIC50 of 6.34.

On to `O=S(=O)(Nc1nccs1)c1ccc2c(c1)OCCN2c1ccccc1-c1cncnc1` [Example 231, 4-(2-(Pyrimidin-5-Yl)Phenyl)-N-(Thiazol-2-Yl)-3,4-Dihydro-2H-Benzo[B][1,4]Oxazine-7-Sulfonamide], for which the pIC50 is 4.70.

`O=C1COc2cc(S(=O)(=O)Nc3nccs3)ccc2N1c1ccc(C(F)(F)F)cc1F` [Example 240, 4-(2-Fluoro-4-(Trifluoromethyl)Phenyl)-3-Oxo-N-(Thiazol-2-Yl)-3,4-Dihydro-2H-Benzo[B][1,4]Oxazine-7-Sulfonamide] showed a pIC50 of 4.92.

`O=C1COc2cc(S(=O)(=O)Nc3nccs3)ccc2N1c1ccc(C(F)(F)F)cc1Cl` [Example 241, 4-(2-Chloro-4-(Trifluoromethyl)Phenyl)-3-Oxo-N-(Thiazol-2-Yl)-3,4-Dihydro-2H-Benzo[B][1,4]Oxazine-7-Sulfonamide] had a pIC50 of 6.32.

Take `COc1cc(C#N)ccc1N1C(=O)COc2cc(S(=O)(=O)Nc3nccs3)ccc21` [Example 232, 4-(4-Cyano-2-Methoxyphenyl)-3-Oxo-N-(Thiazol-2-Yl)-3,4-Dihydro-2H-Benzo[B][1,4]Oxazine-7-Sulfonamide]: the pIC50 was 5.70.

As to `CC(O)c1ccccc1N1C(=O)COc2cc(S(=O)(=O)Nc3nccs3)ccc21` (stereo not drawn) [Example 242, 4-(2-(1-Hydroxyethyl)Phenyl)-3-Oxo-N-(Thiazol-2-Yl)-3,4-Dihydro-2H-Benzo[B][1,4]Oxazine-7-Sulfonamide], the pIC50 is 5.24.

The molecule `COc1cc(C(F)(F)F)ccc1N1C(=O)C(C)Oc2cc(S(=O)(=O)Nc3nccs3)ccc21` (racemic) [Example 263, (+/−)-4-(2-methoxy-4-(trifluoromethyl)phenyl)-2-methyl-3-oxo-N-(thiazol-2-yl)-3,4-dihydro-2H-benzo[b][1,4]oxazine-7-sulfonamide] gave a pIC50 of 6.34.

In turn, `CS(=O)(=O)c1ccccc1N1CCOc2cc(S(=O)(=O)Nc3nccs3)ccc21` [Example 230, 4-(2-(Methylsulfonyl)Phenyl)-N-(Thiazol-2-Yl)-3,4-Dihydro-2H-Benzo[B][1,4]Oxazine-7-Sulfonamide] showed a pIC50 of 4.47.

In turn, `O=C1COc2cc(S(=O)(=O)Nc3nccs3)ccc2N1c1ccc(C(F)(F)F)cc1Br` [Example 239, 4-(2-Bromo-4-(Trifluoromethyl)Phenyl)-3-Oxo-N-(Thiazol-2-Yl)-3,4-Dihydro-2H-Benzo[B][1,4]Oxazine-7-Sulfonamide] gave a pIC50 of 6.46.

Consider `COc1cc(Cl)ccc1N1C(=O)COc2cc(S(=O)(=O)Nc3nccs3)ccc21` [Example 233, 4-(4-Chloro-2-Methoxyphenyl)-3-Oxo-N-(Thiazol-2-Yl)-3,4-Dihydro-2H-Benzo[B][1,4]Oxazine-7-Sulfonamide], for which the pIC50 is 6.49.

Regarding `COCCOc1ccccc1N1CCOc2cc(S(=O)(=O)Nc3nccs3)ccc21` [Example 229, 4-(2-(2-Methoxyethoxy)Phenyl)-N-(Thiazol-2-Yl)-3,4-Dihydro-2H-Benzo[B][1,4]Oxazine-7-Sulfonamide], the pIC50 is 5.50.

Consider `COc1cc(C(F)(F)F)ccc1N1C(=O)C(C)(C)Oc2cc(S(=O)(=O)Nc3nccs3)ccc21` [Example 266, 4-(2-Methoxy-4-(Trifluoromethyl)Phenyl)-2,2-Dimethyl-3-Oxo-N-(Thiazol-2-Yl)-3,4-Dihydro-2H-Benzo[B][1,4]Oxazine-7-Sulfonamide], for which the pIC50 was 5.25.

Take `O=S(=O)(Nc1nccs1)c1ccc2c(c1)OCCN2c1ccccc1C(O)CO` (stereo not drawn) [Example 252, 4-(2-(1,2-dihydroxyethyl)phenyl)-N-(thiazol-2-yl)-3,4-dihydro-2H-benzo[b][1,4]oxazine-7-sulfonamide]: the pIC50 is 5.44.

`C=C(C)c1ccccc1N1CCOc2cc(S(=O)(=O)Nc3nccs3)ccc21` [Example 254, 4-(2-(prop-1-en-2-yl)phenyl)-N-(thiazol-2-yl)-3,4-dihydro-2H-benzo[b][1,4]oxazine-7-sulfonamide] showed a pIC50 of 5.62.

With `NC(=O)COc1ccccc1N1CCOc2cc(S(=O)(=O)Nc3nccs3)ccc21` [Example 256, 2-(2-(7-(N-(thiazol-2-yl)sulfamoyl)-2H-benzo[b][1,4]oxazin-4(3H)-yl)phenoxy)acetamide], the pIC50 is 5.65.
